pIC50: −log10 of the molar value. Where a name gives a salt, the structure may show the parent alone. Read-outs that look alike come from different tables or passages of the source. Blank lines part the entries; values can stand above or below the compound they belong to.
System: NF-kB reporter activity
Experiment: NF-kB luciferase reporter assay (TNFa-stimulated NF-kB Reporter-HEK293 cells)
Format: cell-based, human
Details: for inhibition at 10 µM / pIC50 / Percent Inhibition at 10 uM: NF-kB Reporter-HEK293 cells; for inhibition at 10 µM / Percent Inhibition at 10 uM: compound at 10 uM; for inhibition at 10 µM: read-out: Percent Inhibition at 10 uM
Experimental: NF-kB Reporter-HEK293 cell line (BPS Bioscience #60650); MEM medium (Hyclone #SH30024.01); Fetal bovine serum (Life Technologies #10082147); Non-essential amino acid (Corning 25-025-C1); Na-pyruvate (Hyclone #SH30239.01); Pen-strep (Hyclone #SV30010); Hygromycin B (Invitrogen/Thermo-Fisher #10687010); IKK-16 dihydrochloride—NF-kB inhibitor (Sigma SML1138); TNFa (R&D Systems 210-TA); ONE-Step luciferase assay system (BPS Bioscience #60690).
Cell culture. Cells were cultured in MEM medium with 10% FBS, 1% non-essential amino acid, 1 mM Na-pyruvate, 1% Pen-strep, and 50 μg/mL Hygromycin B.
To perform the NF-kB luciferase reporter assay, NF-kB Reporter—HEK293 cells were seeded at 30,000 cells per well into white clear-bottom 96-well microplate in 60 μL of assay medium (growth medium without Hygromycin B). Cells were incubated at 37° C. and 5% CO2 for 5 hours to allow them attach. A serial dilution of compounds was prepared in assay medium without Hygromycin B. Thirty μL of diluted compounds was added to the treatment wells at the end of the day. Thirty μL of assay medium with the same concentration of DMSO without compound was added to the control wells. One hundred μL of assay medium with DMSO was added to cell-free control wells for determining background luminescence. Cells were incubated at 37° C. and 5% CO2 overnight.
The next day ten μL of diluted human TNFa in assay medium was added to wells (final [TNFa]=10 ng/mL). Ten μL of assay medium was added to unstimulated control wells. Cells were incubated at 37° C. and 5% CO2 for 5-6 hours. After treatment, cells were lysed and the luciferase assay was performed using ONE-Step luciferase assay system: add 100 μL of One-Step Luciferase reagent per well and rock at room temperature for ˜30 minutes. Luminescence was measured using a luminometer (BioTek Synergy™ 2 microplate reader).

[1] = Homo sapiens, TNFa 10 ng/mL, curve fit with top and bottom locked, read-out: IC50 Lock top and bottom of curve
[2] = Homo sapiens, overnight compound, TNFa 10 ng/mL 5-6 hours, luciferase, read-out: IC50 against NF-kB reporter activity
[3] = TNFa 10 ng/mL, curve fit with top and bottom locked, read-out: IC50 Lock top and bottom of curve
[4] = overnight compound, TNFa 10 ng/mL 5-6 hours, luciferase, read-out: IC50 against NF-kB reporter activity

SMILES: Cc1noc2c1-c1ccccc1C(c1ccc(Cl)cc1)=N[C@H]2CC(N)=O [CPI-0610]
inhibition at 10 µM (Homo sapiens, TNFa 10 ng/mL): 78%
pIC50 [1]: 6.27
pIC50 [2]: 6.57

SMILES: Cc1cnc(Nc2ccc(OCCN3CCCC3)cc2)nc1Nc1cccc(S(=O)(=O)NC(C)(C)C)c1 [Fedratinib (TG101348)]
Percent Inhibition at 10 uM (TNFa 10 ng/mL): 99%
pIC50 [3]: 5.54
pIC50 [4]: 5.21

SMILES: O=C(c1ccc(Nc2nccc(-c3cc4ccccc4s3)n2)cc1)N1CCC(N2CCCC2)CC1 [IKK-16 dihydrochloride]
Percent Inhibition at 10 uM (TNFa 10 ng/mL): 88%
pIC50 [3]: 6.59
pIC50 [4]: 6.48

SMILES: N#CC[C@H](C1CCCC1)n1cc(-c2ncnc3[nH]ccc23)cn1 [Ruxolitinib (INCB018424)]
inhibition at 10 µM (Homo sapiens, TNFa 10 ng/mL): -11%

More lines, main results first:

pIC50 [1]: 6.37
pIC50 [2]: 6.33
SMILES: N#CCNC(=O)c1ccc(-c2ccnc(Nc3ccc(N4CCOCC4)cc3)n2)cc1 [MMB/Momelotinib, N-(cyanomethyl)-4-(2-(4-morpholinophenylamino)pyrimidin-4-yl)benzamide]
inhibition at 10 µM (Homo sapiens, TNFa 10 ng/mL): 100%
downregulation of NF-κB signaling in a luciferase assay (cellular data, compounds ran in parallel): downregulates NF-κB signaling

pIC50 [1]: 5.92
pIC50 [2]: 5.85
SMILES: C1=C/COCc2cc(ccc2OCCN2CCCC2)Nc2nccc(n2)-c2cccc(c2)COC/1 [Pacritinib (SB1518)]
inhibition at 10 µM (Homo sapiens, TNFa 10 ng/mL): 100%
